Measurements from patent US20080318943A1, “Compounds and Uses Thereof - 848” (ASTRAZENECA AB, priority 2007, published 2008).

Tests used:
[1] = molecular target: T1, GABAA2 receptors (α2, β3, γ2 receptor subunits transfected into Sf9 cells) (Homo sapiens, UniProt P18507+P47869); test: GABAA2 Binding Method ([3H]-Flunitrazepam displacement); conditions: [3H]-Flunitrazepam ~2 nM, α2β3γ2 Sf9 membranes, 1 hr at 4° C.
T1 construct: host or cells: Sf9 cells (membranes)
Method in brief: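 Membranes from Sf9 cells expressing α2β3γ2 GABAA receptors incubated with ~2 nM (final) [3H]-flunitrazepam and test compound 1 h at 4 °C, then filtered on GF/B plates with cold-buffer washes. Flumazenil-defined controls; percent of control, IC50 and Ki calculated.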

[2] = molecular target: T2, GABAA receptor α1β2γ2 (Homo sapiens, UniProt P14867+P18507); test: Two-electrode voltage-clamp potentiation of GABA EC10 current in Xenopus oocytes, GABAA1; assay type: cell-based; conditions: percentage potentiation of GABA EC10 current divided by that of diazepam
T2 construct: expressed in transfected cells; host or cells: Xenopus laevis oocytes injected with cRNA
Method in brief: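 Human GABAA receptors expressed in Xenopus oocytes by cRNA injection (α:β:γ molar ratio ~1:1:10 for α1β2γ2, 1:1:1 for α2β3γ2), recorded 2-10 days later by two-electrode voltage clamp at −60 mV in ND-96, pH 7.5. Modulator preapplied 30 s before GABA at per-oocyte EC10. Peak-current percent potentiation over GABA alone, normalised to diazepam.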

[3] = molecular target: T3, GABAA receptor α2β3γ2 (Homo sapiens, UniProt P18507+P47869); test: Two-electrode voltage-clamp potentiation of GABA EC10 current in Xenopus oocytes, GABAA2; assay type: cell-based; conditions: percentage potentiation of GABA EC10 current divided by that of diazepam
T3 construct: expressed in transfected cells; host or cells: Xenopus laevis oocytes injected with cRNA
Protocol: GABAA receptors were heterologously expressed in Xenopus oocytes by injecting cRNA corresponding to human α1, α2, α3, α5, β2, P3 and γ2 subunits of the GABAA receptor genes. The specific subunit combinations (subtypes) were as follows: α1β2γ2, α2β3γ2, α3β3γ2, and α5β3γ2. The EC10 of GABA is approximated for each cell. Stability of GABA-mediated (EC10) current is established. Modulatory effect of test compound is determined and compared across subtypes. […] Thus, the assay can characterize modulatory effects and determine subtype selectivity of test compounds on major subtypes of GABAA receptors.
Xenopus laevis frogs (Xenopus I, Kalamazoo, Mich.) were anesthetized using 0.15% tricaine. Surgically removed ovarian lobes were teased out in OR2 solution (82 NaCl, 2.5 KCl, 5 HEPES, 1.5 NaH2PO4, 1 MgCl2, 0.1 EDTA, in mM, pH 7.4). The oocytes were defolliculated by incubation in 25 mL OR2 containing 0.2% collagenase 1A (SIGMA) two times for about 60 minutes on a platform shaker and stored in Leibovitz's L-15 medium. Oocytes were injected the following day in 0.5× Leibovitz's L-15 medium containing […] gentamycin, 10 units/ml penicillin, and […] streptomycin.
Capped cRNAs from the linearized vectors containing human α1, β2 and γ2 subunits of the GABAA receptor genes were mixed in ratio of […]. Oocytes were injected with 25-50 nL of mixed RNA with an appx molar ratio for α1, β2, and γ2 as 1:1:10. Oocyte recordings were done 2-10 days after injection. The same methods apply to subtypes derived from α2β3γ2, α3β3γ2, and α5β3γ2, except for 1:1:1 ratio was used for α, β, and γ subunits.
All measurements were done in a medium containing ND-96 (96 NaCl, 2 KCl, 1.8 CaCl2.2H2O, 1 MgCl2.6H2O, 5 HEPES, in mM, pH 7.5). Two-electrode voltage-clamp recording was carried out using OpusXpress amplifier (Axon Instruments, Foster City, Calif.), which allows simultaneous recording from 8 oocytes. Oocytes were impaled with two electrodes of 1-2 MΩ tip resistance when filled with 3M KCl. Recordings were begun when membrane potential became stable at potentials negative to −50-−60 mV. Membrane potential was held at −60 mV. […] The concentration of GABA corresponded to the EC10 value calculated for each oocyte. The modulator pulses started 30 s before the GABA pulse so as to allow preincubation with the modulator. A set of 3 pulses with just GABA without modulator was given prior to the modulator-containing pulses to define the baseline GABA response. Two oocytes per each experiment were dedicated to observe the effect of diazepam on GABA response to ensure the presence of γ2 subunit in the GABAA pentameric complex, which imparts diazepam sensitivity to the complex.
Current amplitude (i) was measured from baseline to peak using Clampfit (Axon Inst., Foster City, Calif.). Potentiation was calculated as percent change from the baseline GABA current flux 100×(imod/icontrol)−1) where imod=current mediated by modulator+GABA and icontrol=current mediated by GABA alone. […] Similarly, a value of −50% potentiation means the presence of modulator caused a 50% decrease in the control current. Various other data shown here were fitted and plotted using GraphPad Prism (GraphPad Software, Inc. San Diego, Calif.). The percentage potentiation was converted to relative potentiation by dividing it with percentage potentiation value obtained from the same assay with diazepam as a control.

[4] = listed as 9-Amino-2-cyclobutyl-5-((P)-2-fluoro-6-methoxyphenyl)-2,3-dihydro-pyrrolo[3,4-b]
[5] = listed as 9-Amino-2-cyclobutyl-5-((M)-2-fluoro-6-methoxyphenyl)-2,3-dihydro-pyrrolo[3,4-b]

T1 sequence (P47869 29-451): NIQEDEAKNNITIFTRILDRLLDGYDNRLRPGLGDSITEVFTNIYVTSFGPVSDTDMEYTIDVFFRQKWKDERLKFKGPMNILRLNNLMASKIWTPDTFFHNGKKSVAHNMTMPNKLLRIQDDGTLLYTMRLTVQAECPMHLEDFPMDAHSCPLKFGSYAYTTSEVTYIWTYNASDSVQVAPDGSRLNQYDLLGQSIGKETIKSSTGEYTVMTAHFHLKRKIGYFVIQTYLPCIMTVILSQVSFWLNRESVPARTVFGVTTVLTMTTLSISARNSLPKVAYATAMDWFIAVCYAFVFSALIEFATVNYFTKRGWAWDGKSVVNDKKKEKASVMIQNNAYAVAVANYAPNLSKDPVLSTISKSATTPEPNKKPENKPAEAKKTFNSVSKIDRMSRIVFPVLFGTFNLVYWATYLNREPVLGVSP
T1 sequence (P28472 26-473 partner): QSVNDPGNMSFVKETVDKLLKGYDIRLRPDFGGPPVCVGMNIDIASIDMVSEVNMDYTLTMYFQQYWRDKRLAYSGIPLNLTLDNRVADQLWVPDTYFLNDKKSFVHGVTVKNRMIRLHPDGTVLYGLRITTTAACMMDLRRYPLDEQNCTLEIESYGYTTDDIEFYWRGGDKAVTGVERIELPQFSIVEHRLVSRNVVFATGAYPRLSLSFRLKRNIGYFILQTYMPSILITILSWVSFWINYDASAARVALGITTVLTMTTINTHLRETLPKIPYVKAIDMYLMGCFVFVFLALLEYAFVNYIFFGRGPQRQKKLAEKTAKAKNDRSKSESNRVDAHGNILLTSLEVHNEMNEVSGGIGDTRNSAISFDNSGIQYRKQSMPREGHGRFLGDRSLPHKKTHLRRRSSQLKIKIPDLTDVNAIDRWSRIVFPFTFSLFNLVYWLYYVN
T1 sequence (P18507 40-475): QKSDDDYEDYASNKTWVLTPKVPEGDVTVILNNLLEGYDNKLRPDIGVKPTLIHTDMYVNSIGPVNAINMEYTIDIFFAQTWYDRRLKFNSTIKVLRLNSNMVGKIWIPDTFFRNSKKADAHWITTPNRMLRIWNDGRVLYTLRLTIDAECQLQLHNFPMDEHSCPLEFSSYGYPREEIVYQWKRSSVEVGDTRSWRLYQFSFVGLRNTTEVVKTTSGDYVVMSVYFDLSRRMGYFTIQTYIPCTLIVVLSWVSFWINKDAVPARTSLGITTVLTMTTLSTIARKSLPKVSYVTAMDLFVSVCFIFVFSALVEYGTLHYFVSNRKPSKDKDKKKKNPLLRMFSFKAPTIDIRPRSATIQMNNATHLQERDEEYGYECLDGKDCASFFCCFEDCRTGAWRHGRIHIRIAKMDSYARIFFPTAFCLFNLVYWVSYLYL
T3 sequence (P47869 29-451): as the sequence (P47869 29-451) above
T3 sequence (P28472 26-473 partner): as the sequence (P28472 26-473 partner) above
T3 sequence (P18507 40-475): as the sequence (P18507 40-475) above
T2 sequence (P14867 28-456): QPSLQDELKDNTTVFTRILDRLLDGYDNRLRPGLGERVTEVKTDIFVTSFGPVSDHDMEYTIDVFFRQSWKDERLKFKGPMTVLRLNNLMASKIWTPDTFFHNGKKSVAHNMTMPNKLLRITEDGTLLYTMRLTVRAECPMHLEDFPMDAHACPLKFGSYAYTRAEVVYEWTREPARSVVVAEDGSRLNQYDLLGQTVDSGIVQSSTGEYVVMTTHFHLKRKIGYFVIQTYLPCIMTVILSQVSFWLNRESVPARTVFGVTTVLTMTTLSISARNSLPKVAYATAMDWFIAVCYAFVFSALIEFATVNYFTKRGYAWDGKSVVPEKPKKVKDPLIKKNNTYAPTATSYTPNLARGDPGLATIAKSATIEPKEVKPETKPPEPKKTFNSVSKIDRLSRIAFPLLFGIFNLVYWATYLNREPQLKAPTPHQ
T2 sequence (P47870 25-512 partner limits assumed): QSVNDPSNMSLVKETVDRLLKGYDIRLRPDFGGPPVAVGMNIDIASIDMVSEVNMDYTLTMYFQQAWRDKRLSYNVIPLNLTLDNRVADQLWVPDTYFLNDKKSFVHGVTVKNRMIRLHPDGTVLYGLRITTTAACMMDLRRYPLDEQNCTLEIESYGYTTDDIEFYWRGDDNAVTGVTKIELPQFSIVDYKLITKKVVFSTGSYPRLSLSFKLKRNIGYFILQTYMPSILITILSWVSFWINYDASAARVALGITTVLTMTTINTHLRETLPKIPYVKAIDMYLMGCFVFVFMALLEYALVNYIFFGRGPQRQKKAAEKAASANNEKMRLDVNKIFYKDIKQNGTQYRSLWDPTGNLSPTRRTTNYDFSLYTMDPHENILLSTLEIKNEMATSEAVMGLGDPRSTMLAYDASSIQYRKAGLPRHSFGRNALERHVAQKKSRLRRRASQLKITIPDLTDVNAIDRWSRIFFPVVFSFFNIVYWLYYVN
T2 sequence (P18507 40-475): as the sequence (P18507 40-475) above

SMILES	Ki [1] [nM]	Relative Potentiation for GABAA1 [2]	Relative Potentiation for GABAA2 [3]	also measured
COc1ccc(-c2cccc3c(N)c4c(nc23)CN(C)C4=O)c(OC)n1 [9-Amino-5-(2,6-dimethoxypyridin-3-yl)-2-methyl-2,3-dihydropyrrolo[3,4-b]quinolin-1-one]	290		0.19	
CCCN1Cc2nc3c(-c4cc(Br)cnc4OC)cccc3c(N)c2C1=O [9-amino-5-(5-bromo-2-methoxypyridin-3-yl)-2-propyl-2,3-dihydro-1H-pyrrolo[3,4-b]quinolin-1-one]	10.6	0.53		
CCCN1Cc2nc3c(-c4cc(Cl)cnc4OC)cccc3c(N)c2C1=O [9-amino-5-(5-chloro-2-methoxypyridin-3-yl)-2-propyl-2,3-dihydro-1H-pyrrolo[3,4-b]quinolin-1-one]	21.5	0.49		
COc1ccc(CN2Cc3nc4c(-c5cc(F)ccc5OC)cccc4c(N)c3C2=O)cc1 [9-amino-5-(5-fluoro-2-methoxyphenyl)-2-(4-methoxybenzyl)-2,3-dihydro-1H-pyrrolo[3,4-b]quinolin-1-one]	46.3	0.39		
COc1ccc(CN2Cc3nc4c(-c5cc(F)ccc5C)cccc4c(N)c3C2=O)cc1 [9-amino-5-(5-fluoro-2-methylphenyl)-2-(4-methoxybenzyl)-2,3-dihydro-1H-pyrrolo[3,4-b]quinolin-1-one]	25.8	0.22		
CCCN1Cc2nc3c(-c4cc(F)ccc4C)cccc3c(N)c2C1=O [9-amino-5-(5-fluoro-2-methylphenyl)-2-propyl-2,3-dihydro-1H-pyrrolo[3,4-b]quinolin-1-one]	6.3	0.29		
CCCN1Cc2nc3c(-c4cncc(OC)c4)cccc3c(N)c2C1=O [9-amino-5-(5-methoxypyridin-3-yl)-2-propyl-2,3-dihydro-1H-pyrrolo[3,4-b]quinolin-1-one]	63	0.23		
CCCN1Cc2nc3c(-c4ccc(Cl)nc4C)cccc3c(N)c2C1=O [9-amino-5-(6-chloro-2-methylpyridin-3-yl)-2-propyl-2,3-dihydro-1H-pyrrolo[3,4-b]quinolin-1-one]	23.1	1.1		
CCCN1Cc2nc3c(-c4cnc(OC)c(C)c4)cccc3c(N)c2C1=O [9-amino-5-(6-methoxy-5-methylpyridin-3-yl)-2-propyl-2,3-dihydro-1H-pyrrolo[3,4-b]quinolin-1-one]	36.5	0.32		
CCCN1Cc2nc3c(-c4ccoc4)cccc3c(N)c2C1=O [9-amino-5-(furan-3-yl)-2-propyl-2,3-dihydro-1H-pyrrolo[3,4-b]quinolin-1-one]	38.2	0.13		
CCCN1Cc2nc3c(-c4ccccc4)cccc3c(N)c2C1=O [9-amino-5-phenyl-2-propyl-2,3-dihydro-1H-pyrrolo[3,4-b]quinolin-1-one]	43.8	0.51		
CCCN1Cc2nc3c(-c4cccnc4)cccc3c(N)c2C1=O [Example 40, 9-Amino-2-propyl-5-pyridin-3-yl-2,3-dihydropyrrolo[3,4-b]quinolin-1-one]	46.5		0.27	
CCCCN1Cc2nc3c(-c4ccc(OC)nc4OC)cccc3c(N)c2C1=O [Example 43, 9-Amino-2-butyl-5-(2,6-dimethoxypyridin-3-yl)-2,3-dihydropyrrolo[3,4-b]quinolin-1-one]	45		0.37	

Now from value to molecule, other results behind:

Ki [1] [nM]	Relative Potentiation for GABAA1 [2]	Relative Potentiation for GABAA2 [3]	SMILES	also measured
0.945	0.054	0.39	COc1cccc(F)c1-c1cccc2c(N)c3c(nc12)CN([C@H]1C[C@@H](C)C1)C3=O	
1.29	0.085	0.51	COc1ncccc1-c1cccc2c(N)c3c(nc12)CN([C@H]1C[C@@H](C)C1)C3=O	
4.65	0.14	0.3	COc1ccc(-c2cccc3c(N)c4c(nc23)CN([C@H]2C[C@@H](C)C2)C4=O)c(C)n1	
18.8	0.097	0.32	COc1ncccc1-c1c(F)ccc2c(N)c3c(nc12)CN(C1CCOC1)C3=O (stereo not drawn)	
3.63	−0.018	0.38	COc1cccc(F)c1-c1cccc2c(N)c3c(nc12)CN(C1CC1)C3=O (atropisomer, axis not shown; (P))	
0.289			COc1cccc(F)c1-c1cccc2c(N)c3c(nc12)CN(C1CCC1)C3=O (single isomer, unassigned) [Example 129, 9-Amino-2-cyclobutyl-5-((P)-2-fluoro-6-methoxyphenyl)-2,3-dihydropyrrolo[3,4-b]quinolin-1-one]	Relative Potentiation for GABAA1 [2, 4]: −0.11; Relative Potentiation for GABAA2 [3, 4]: 0.23
9.21			COc1cccc(F)c1-c1cccc2c(N)c3c(nc12)CN(C1CCC1)C3=O (single isomer, unassigned) [Example 130, 9-Amino-2-cyclobutyl-5-((M)-2-fluoro-6-methoxyphenyl)-2,3-dihydropyrrolo[3,4-b]quinolin-1-one]	Relative Potentiation for GABAA1 [2, 5]: 0.002; Relative Potentiation for GABAA2 [3, 5]: 0.23
8.95	0.19		COc1ccc(Cl)cc1-c1cccc2c(N)c3c(nc12)CN(C1CC1)C3=O [9-amino-5-(5-chloro-2-methoxyphenyl)-2-cyclopropyl-2,3-dihydro-1H-pyrrolo[3,4-b]quinolin-1-one]	
28	0.16		Cc1nc(Cl)ccc1-c1cccc2c(N)c3c(nc12)CN(C1CC1)C3=O [9-amino-5-(6-chloro-2-methylpyridin-3-yl)-2-cyclopropyl-2,3-dihydro-1H-pyrrolo[3,4-b]quinolin-1-one]	
16.4	0.29		CCCN1Cc2nc3c(-c4ccc(OC)nc4C)cccc3c(N)c2C1=O [9-amino-5-(6-methoxy-2-methylpyridin-3-yl)-2-propyl-2,3-dihydro-1H-pyrrolo[3,4-b]quinolin-1-one]	
50.1		0.18	CCN1Cc2nc3c(-c4ccc(OC)nc4OC)cccc3c(N)c2C1=O [Example 27, 9-Amino-5-(2,6-dimethoxypyridin-3-yl)-2-ethyl-2,3-dihydropyrrolo[3,4-b]quinolin-1-one]	
	−0.078	0.15	COc1cccc(C#N)c1-c1cccc2c(N)c3c(nc12)CN(C1CC1)C3=O [Example 139, 2-(9-Amino-2-cyclopropyl-1-oxo-2,3-dihydro-1H-pyrrolo[3,4-b]quinolin-5-yl)-3-methoxybenzonitrile]	
